The text below walks through data of patent US6080738A, “Heterocyclic amide compounds and medicinal uses thereof” (Yoshitomi Pharmaceuticals Industries, Ltd., priority 1996, dated 2000).

The assay concerns the target T1, human heart chymase (Homo sapiens, UniProt P23946).
T1 sequence (P23946 22-247): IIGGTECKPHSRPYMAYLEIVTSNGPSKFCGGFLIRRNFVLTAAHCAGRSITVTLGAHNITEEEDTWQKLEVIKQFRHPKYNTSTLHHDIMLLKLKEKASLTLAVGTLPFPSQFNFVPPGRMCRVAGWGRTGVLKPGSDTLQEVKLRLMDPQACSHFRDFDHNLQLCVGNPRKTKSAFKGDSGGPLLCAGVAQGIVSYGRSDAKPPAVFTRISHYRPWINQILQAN
Put plainly: Inhibitory activity on amidase activity of human heart chymase. The format is biochemical. The settings on record: 5 nM chymase; substrate succinyl-alanyl-alanyl-prolyl-phenylalanine-p-nitroanilide 2.5 mM; Tris-HCl (100 mM)-KCl (2 M), pH 7.5. How it is done:
The effectiveness of the inhibitory activity of compound (I) and compound (XXVI) of the present invention was evaluated based on the inhibitory activity on amidase activity of human heart chymase, which was determined as in the following.
The inhibitory activity was quantitatively determined through variation in fractional residual activity of the enzyme caused by the inventive compound in defined serial concentration (<×1, <×10, <×100-fold equivalents) relative to 5 nM chymase in the presence of synthetic substrate, succinyl-alanyl-alanyl-prolyl-phenylalanine-p-nitroanilide (final concentration 2.5 mM). The inhibitory effect was analyzed by least square regression of Easson-Stedman plot (Proc. Roy. Soc. B. 1936, 121, p. 141) utilizing bimolecular equilibrium reaction linearization formula. The inhibitory activity was evaluated by the apparent inhibitory constant (Kiapp) obtained by this analysis and inhibitory constant (Ki) calculated from final substrate concentration in the reaction mixture and Km values separately determined. With regard to the quantlitative determination of initial rate of the enzyme reaction, the amount of p-nitroaniline produced by hydrolysis of the substrate was spectrophotometrically detected in terms of an increased absorbance which was obtained by subtracting absorbance at 650 nm wavelength from the absorbance at 405 nm. The chymase inhibitory activity of the compound of the present invention was calculated as ratio of residual activity in the presence of inhibitor relative to enzyme activity in the absence of inhibitor, and incorporation of the determination values was completed at a level less than initial rate guarantee absorbance at a concentration of the substrate used for the enzyme, after which analysis was performed.
The reaction mixture consisted of a buffer (pH 7.5, 140 μl) of Tris-HCl (100 mM) - KCl (2 M), the inventive compound dissolved in 20 μl of 10% dimethyl sulfoxide (DMSO), substrate dissolved in 20 μl of DMSO, and 20 μl of chymase, thus amounting to 200 μl in total.
Starting with the absorbance immediately after addition of the enzyme, increases in absorbance were recorded as a progressive curve taken precisely at equal time intervals.
From the above data, the difference between absorbances at completion of the reaction and immediately after addition was used to quantitatively determine the residual activity of the sample added with the inhibitor relative to a control wherein the inhibitor was not added. Alternatively, reaction rates of the control and the sample added with the inhibitor were calculated for certain time period (≥20 min) with successive shift (every 10 to 30 minutes) of the period, and the residual activity ratio was quantitatively determined and analyzed from the respective reaction rates averaged through the entire reaction time.

A word on the Ki: it is the dissociation constant of the complex between target and ligand, obtained from inhibition or displacement. A lower Ki goes with tighter binding. For `CC(=O)Nc1cnc(-c2ccc(F)cc2)n(CC(=O)NC(Cc2ccccc2)C(=O)c2nc3ccccc3o2)c1=O` (stereo not shown) [Example 94, 2-[5-acetamide-2-(4-fluorophenyl)-6-oxo-1,6-dihydro-1-pyrimidinyl]-N-[1-[(benzoxazol-2-yl)carbonyl]-2-phenylethyl]acetamide], affinity was put at a Ki of 58 nM.
